From patent publication US20220331414A1, “LIPID COMPOUNDS AND LIPID NANOPARTICLE COMPOSITIONS” (Suzhou Abogen Biosciences Co., Ltd., priority 2020, published 2022)
One block for each molecule: values may come before it.

Key:
[1] = Lipid nanoparticle size and polydispersity by dynamic light scattering; format: physicochemical; settings: LNP of cationic lipid/DSPC/cholesterol/PEG-lipid 50:10:38.5:1.5 with mRNA
Method: (§1) Briefly, a cationic lipid provided herein, DSPC, cholesterol, and PEG-lipid were solubilized in ethanol at a molar ratio of 50:10:38.5:1.5, and mRNA were diluted in 10 to 50 mM citrate buffer, pH=4. The LNPs were prepared at a total lipid to mRNA weight ratio of approximately 10:1 to 30:1 by mixing the ethanolic lipid solution with the aqueous mRNA solution at a volume ratio of 1:3 using a microfluidic apparatus, total flow rate ranging from 9-30 mL/min. Ethanol were thereby removed and replaced by DPBS using dialysis. Finally, the lipid nanoparticles were filtered through a 0.2 μm sterile filter.
(§2) Lipid nanoparticle size were determined by dynamic light scattering using a Malvern Zetasizer Nano ZS (Malvern UK) using a 173° backscatter detection mode. The encapsulation efficiency of lipid nanoparticles were determined using a Quant-it Ribogreen RNA quantification assay kit (Thermo Fisher Scientific, UK) according to the manufacturer's instructions.

[2] = Encapsulation efficiency of lipid nanoparticles (Quant-it Ribogreen RNA assay); format: physicochemical; settings: LNP of cationic lipid/DSPC/cholesterol/PEG-lipid 50:10:38.5:1.5 with mRNA
Method: as §1, §2

[3] = Apparent pKa of LNP formulations by TNS fluorescence assay; settings: LNP cationic lipid/DSPC/cholesterol/DMG-PEG 50/10/38.5/1.5 mol %, pH 3 to 9
Method: TNS was prepared as a 300 uM stock solution in distilled water. LNP formulations were diluted to 0.1 mg/ml total lipid in 3 mL of buffered solutions containing 50 mM sodium citrate, 50 mM sodium phosphate, 50 mM sodium borate, and 30 mM sodium chloride where the pH ranged from 3 to 9. An aliquot of the TNS solution was added to give a final concentration of 0.1 mg/ml and following vortex mixing fluorescence intensity was measured at room temperature in a Molecular Devices Spectramax iD3 spectrometer using excitation and mission wavelengths of 325 nm and 435 nm. A sigmoidal best fit analysis was applied to the fluorescence data and the pKa value was measured as the pH giving rise to half—maximal fluorescent intensity.

Compound: CCCCCCCCCOC(=O)CCCCCOP(=O)(NCCN(C)C)OCCCCCC(=O)OCCCCCCCCC [Compound 5]
polydispersity [1]: 0.194
size (nm) [1]: 94.66 nm
Encapsulation Efficiency [2]: 88.8%
Apparant Pka [3]: 7.26

Compound: CCCCCCCCCCCCCOP(=O)(OCCCCCCCCCCCCC)N1CCC(N2CCOCC2)CC1 [Compound 19]
polydispersity [1]: 0.086
size (nm) [1]: 110.8 nm
Encapsulation Efficiency [2]: 73.7%
Apparant Pka [3]: 6.38

Compound: CCCCCCCCC(CCC)COP(=O)(NCCN1CCCC1)OCC(CCC)CCCCCCCC (centres unmarked) [Compound 71]
polydispersity [1]: 0.108
size (nm) [1]: 69.18 nm
Encapsulation Efficiency [2]: 94.4%
Apparant Pka [3]: 7.104

Compound: CCCCCCCCCCCCCOP(=O)(NCCN1CCCCC1)OCCCCCCCCCCCCC [Compound 13]
polydispersity [1]: 0.034
size (nm) [1]: 130.5 nm
Encapsulation Efficiency [2]: 96.5%
Apparant Pka [3]: 7.79

Compound: CCCCCCCCC(CCCCCC)C(C)OP(=O)(NCCN(CC)CC)OC(C)C(CCCCCC)CCCCCCCC (centres unmarked) [Compound 59]
polydispersity [1]: 0.118
size (nm) [1]: 90.85 nm
Encapsulation Efficiency [2]: 58.6%
Apparant Pka [3]: 4.385

Compound: CCCCCCCCC(CCCC)COP(=O)(NCCN(CC)CC)OCC(CCCC)CCCCCCCC (centres unmarked) [Compound 75]
polydispersity [1]: 0.023
size (nm) [1]: 138.2 nm
Encapsulation Efficiency [2]: 92.1%
Apparant Pka [3]: 6.603

Compound: CCCCCCCCC(CCCC)COP(=O)(NCCN1CCCC1)OCC(CCCC)CCCCCCCC (centres unmarked) [Compound 73]
polydispersity [1]: 0.101
size (nm) [1]: 70.54 nm
Encapsulation Efficiency [2]: 91.4%
Apparant Pka [3]: 7.003

Compound: CCCCCCCCCCCCCOP(=O)(NCCCN1CCCC1)OCCCCCCCCCCCCC [Compound 12]
polydispersity [1]: 0.137
size (nm) [1]: 164.9 nm
Encapsulation Efficiency [2]: 94.0%
Apparant Pka [3]: 6.13

Compound: CCCCCCCCC(CCC)COP(=O)(NCCN(CC)CC)OCC(CCC)CCCCCCCC (centres unmarked) [Compound 70]
polydispersity [1]: 0.298
size (nm) [1]: 53.76 nm
Encapsulation Efficiency [2]: 93.8%
Apparant Pka [3]: 6.153

Compound: CCCCCCCCC(CCCCCC)COP(=O)(NCCN(CCC)CCO)OCC(CCCCCC)CCCCCCCC (centres unmarked) [Compound 53]
polydispersity [1]: 0.329
size (nm) [1]: 90.86 nm
Encapsulation Efficiency [2]: 95.1%
Apparant Pka [3]: 5.679

Compound: CCCCCCCCC(C)COP(=O)(NCCN(CC)CC)OCC(C)CCCCCCCC (centres unmarked) [Compound 69]
polydispersity [1]: 0.355
size (nm) [1]: 68.3 nm
Encapsulation Efficiency [2]: 87.1%
Apparant Pka [3]: 7.408

Compound: CCCCCCCCC(CCCCCC)COP(=O)(NCCCN1CCOCC1)OCC(CCCCCC)CCCCCCCC (centres unmarked) [Compound 31]
polydispersity [1]: 0.159
size (nm) [1]: 62.39 nm
Encapsulation Efficiency [2]: 91.8%
Apparant Pka [3]: 5.21

More lines, now with the values ahead:

polydispersity [1]: 0.053
size (nm) [1]: 71.16 nm
Encapsulation Efficiency [2]: 96.3%
Apparant Pka [3]: 6.457
Compound: CCCCCCCCCCC(CCCCCCCC)COP(=O)(NCCN1CCCC1)OCC(CCCCCCCC)CCCCCCCCCC (centres unmarked) [Compound 79]

polydispersity [1]: 0.162
size (nm) [1]: 66.97 nm
Encapsulation Efficiency [2]: 96.9%
Apparant Pka [3]: 6.381
Compound: CCCCCCCCC(CCCCC)COP(=O)(NCCN1CCCC1)OCC(CCCCC)CCCCCCCC (centres unmarked) [Compound 74]

polydispersity [1]: 0.218
size (nm) [1]: 56.41 nm
Encapsulation Efficiency [2]: 92.7%
Apparant Pka [3]: 5.661
Compound: CCCCCCCCC(CCCCCCCC)COP(=O)(NCCN1CCCC1)OCC(CCCCCCCC)CCCCCCCC [Compound 81]

polydispersity [1]: 0.234
size (nm) [1]: 63.03 nm
Encapsulation Efficiency [2]: 95.2%
Apparant Pka [3]: 5.969
Compound: CCCCCCCCCCC(CCCCCCCC)COP(=O)(NCCN(CC)CC)OCC(CCCCCCCC)CCCCCCCCCC (centres unmarked) [Compound 78]

polydispersity [1]: 0.045
size (nm) [1]: 66.05 nm
Encapsulation Efficiency [2]: 93.8%
Apparant Pka [3]: 6.303
Compound: CCCCCCCCCCC(CCCCCCCCCC)COP(=O)(NCCN1CCCC1)OCC(CCCCCCCCCC)CCCCCCCCCC [Compound 87]
